In US20240307419A1, “CONFORMATIONALLY-CONSTRAINED INHIBITORS OF 3C OR 3C-LIKE PROTEASES” (priority 2021, published 2024):

Experiments:
SARS-CoV-2 3CLpro = SARS-CoV-2 3CLpro (Severe acute respiratory syndrome coronavirus 2 (2019-nCoV) (SARS-CoV-2), UniProt P0DTD1); assay: biochemical; type: biochemical; conditions: for IC50: read-out: IC50
[1] = system: Huh-7, CRFK, or CCL1 cells
MERS-CoV 3CLpro = MERS-CoV 3CLpro (Middle East respiratory syndrome-related coronavirus (isolate United Kingdom/H123990006/2012) (MERS-CoV) (Betacoronavirus England 1), UniProt K9N7C7); type: biochemical
SARS-CoV-2 replicon = assay: microbe, parasite or virus in culture; type: cell-based; conditions: Severe acute respiratory syndrome coronavirus 2, HEK-293T, 30 h, read-out: EC50, SARS-CoV-2 replicon assay
CRFK cells = conditions: cat

Sequence of MERS-CoV 3CLpro (K9N7C7 3248-3553 limits assumed): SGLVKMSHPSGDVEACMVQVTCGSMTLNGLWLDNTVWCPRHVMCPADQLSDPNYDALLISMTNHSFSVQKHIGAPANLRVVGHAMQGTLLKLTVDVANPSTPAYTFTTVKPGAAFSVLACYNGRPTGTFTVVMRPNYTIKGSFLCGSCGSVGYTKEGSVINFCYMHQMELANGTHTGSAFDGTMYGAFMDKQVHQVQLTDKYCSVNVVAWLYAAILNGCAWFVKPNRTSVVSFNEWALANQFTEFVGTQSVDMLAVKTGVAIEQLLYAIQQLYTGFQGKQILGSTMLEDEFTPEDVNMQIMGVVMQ

SMILES | IC50 (SARS-CoV-2 3CLpro) [nM] | CC50 [1] [nM] | IC50 (MERS-CoV 3CLpro) [nM] | decrease in potency compared to 2k/3k (SARS-CoV-2 3CLpro) [fold] | EC50 (SARS-CoV-2 replicon) [nM] | CC50 (CRFK cells) [nM]
[2H]C([2H])(OC(=O)N[C@@H](CC(C)C)C(=O)N[C@H](C=O)C[C@@H]1CCNC1=O)[C@@H]1C[C@@H]2C=CC[C@@H](C2)C1 [Compound 2d, ((1S,3S,5R)-Bicyclo[3.3.1]non-6-en-3-yl)methyl-d2 ((S)-4-methyl-1-oxo-1-(((S)-1-oxo-3-((S)-2-oxopyrrolidin-3-yl)propan-2-yl)amino)pentan-2-yl)carbamate] | 280 ± 80 | > 100000 | – | – | – | –
CC(C)C[C@H](NC(=O)OCC1CC2C=CC1C2)C(=O)N[C@H](C=O)C[C@@H]1CCNC1=O (stereo partly drawn) [Compound 2e, Bicyclo[2.2.1]hept-5-en-2-ylmethyl ((S)-4-methyl-1-oxo-1-(((S)-1-oxo-3-((S)-2-oxopyrrolidin-3-yl)propan-2-yl)amino)pentan-2-yl)carbamate] | 260 ± 50 | > 100000 | – | – | – | –
CC(C)C[C@H](NC(=O)OCC1CC2CCC1C2)C(=O)N[C@H](C=O)C[C@@H]1CCNC1=O (stereo partly drawn) [Compound 2f, Bicyclo[2.2.1]heptan-2-ylmethyl ((S)-4-methyl-1-oxo-1-(((S)-1-oxo-3-((S)-2-oxopyrrolidin-3-yl)propan-2-yl)amino)pentan-2-yl)carbamate] | 140 ± 20 | > 100000 | 63 ± 3 | – | – | –
CC(C)C[C@H](NC(=O)O[C@@H]1C[C@H]2CC[C@@H](C1)N2C(=O)OC(C)(C)C)C(=O)N[C@H](C=O)C[C@@H]1CCNC1=O [Compound 2g, tert-Butyl (1R,3s,5S)-3-((((S)-4-methyl-1-oxo-1-(((S)-1-oxo-3-((S)-2-oxopyrrolidin-3-yl)propan-2-yl)amino)pentan-2-yl)carbamoyl)oxy)-8-azabicyclo[3.2.1]octane-8-carboxylate] | 1900 ± 140 | > 100000 | – | – | – | –
CC(C)C[C@H](NC(=O)O[C@@H]1C[C@H]2CC[C@@H](C1)N2C(=O)OCc1ccccc1)C(=O)N[C@H](C=O)C[C@@H]1CCNC1=O [Compound 2h, Benzyl (1R,3s,5S)-3-((((S)-4-methyl-1-oxo-1-(((S)-1-oxo-3-((S)-2-oxopyrrolidin-3-yl)propan-2-yl)amino)pentan-2-yl)carbamoyl)oxy)-8-azabicyclo[3.2.1]octane-8-carboxylate] | 390 ± 20 | > 100000 | – | – | – | –
[2H]C([2H])(OC(=O)N[C@@H](CC(C)C)C(=O)N[C@H](C=O)C[C@@H]1CCNC1=O)C12CCC(CCCCC)(CC1)CC2 [Compound 2j, (4-Pentylbicyclo[2.2.2]octan-1-yl)methyl-d2 ((S)-4-methyl-1-oxo-1-(((S)-1-oxo-3-((S)-2-oxopyrrolidin-3-yl)propan-2-yl)amino)pentan-2-yl)carbamate] | 310 ± 30 | 20000 ± 3000 | – | – | – | –
CC(C)C[C@H](NC(=O)OCC12CC3CC(CC(C3)C1)C2)C(=O)N[C@H](C=O)C[C@H]1CCNC1=O [Compound 2k, ((3S,5S,7S)-Adamantan-1-yl)methyl((S)-4-methyl-1-oxo-1-(((S)-1-oxo-3-((S)-2-oxopyrrolidin-3-yl)propan-2-yl)amino)pentan-2-yl)carbamate] | 180 ± 40 | > 100000 | 55 ± 2 | – | – | –
CC(C)C[C@H](NC(=O)OCCC12CC3CC(CC(C3)C1)C2)C(=O)N[C@H](C=O)C[C@H]1CCNC1=O [Compound 2m, 2-((3S,5S,7S)-Adamantan-1-yl)ethyl ((S)-4-methyl-1-oxo-1-(((S)-1-oxo-3-((S)-2-oxopyrrolidin-3-yl)propan-2-yl)amino)pentan-2-yl)carbamate] | 270 ± 20 | > 100000 | – | – | – | –
CC(C)C[C@H](NC(=O)OC[C@@]12C[C@@H]3C[C@@H](C[C@@](O)(C3)C1)C2)C(=O)N[C@H](C=O)C[C@@H]1CCNC1=O [Compound 2n, ((1r,3R,5R,7S)-3-Hydroxyadamantan-1-yl)methyl ((S)-4-methyl-1-oxo-1-(((S)-1-oxo-3-((S)-2-oxopyrrolidin-3-yl)propan-2-yl)amino)pentan-2-yl)carbamate] | 820 ± 190 | > 100000 | – | ~5 | – | –
[2H]C([2H])(OC(=O)N[C@@H](CC(C)C)C(=O)N[C@@H](C[C@@H]1CCNC1=O)C(O)S(=O)(=O)[O-])[C@@H]1C[C@@H]2C=CC[C@@H](C2)C1.[Na+] (stereo partly drawn) [Compound 3d, Sodium (2S)-2-((S)-2-(((((1S,3S,5R)-bicyclo[3.3.1]non-6-en-3-yl)methoxy-d2)carbonyl)amino)-4-methylpentanamido)-1-hydroxy-3-((S)-2-oxopyrrolidin-3-yl)propane-1-sulfonate] | 300 ± 30 | > 100000 | – | – | – | –
CC(C)C[C@H](NC(=O)OCC1CC2C=CC1C2)C(=O)N[C@@H](C[C@@H]1CCNC1=O)C(O)S(=O)(=O)O (stereo partly drawn) [Compound 3e, Sodium (2S)-2-((2S)-2-(((bicyclo[2.2.1]hept-5-en-2-ylmethoxy)carbonyl)amino)-4-methylpentanamido)-1-hydroxy-3-((S)-2-oxopyrrolidin-3-yl)propane-1-sulfonate] | 280 ± 30 | > 100000 | – | – | – | –
CC(C)C[C@H](NC(=O)OCC1CC2CCC1C2)C(=O)N[C@@H](C[C@@H]1CCNC1=O)C(O)S(=O)(=O)O (stereo partly drawn) [Compound 3f, Sodium (2S)-2-((2S)-2-(((bicyclo[2.2.1]heptan-2-ylmethoxy)carbonyl)amino)-4-methylpentanamido)-1-hydroxy-3-((S)-2-oxopyrrolidin-3-yl)propane-1-sulfonate] | 100 ± 10 | > 100000 | 58 ± 2 | – | – | –
CC(C)C[C@H](NC(=O)OC1CC2CCC(C1)N2C(=O)OC(C)(C)C)C(=O)N[C@@H](C[C@H]1CCNC1=O)C(O)S(=O)(=O)O (stereo partly drawn) [Compound 3g, Sodium (2S)-2-((S)-2-(((((1R,3s,5S)-8-(tert-butoxycarbonyl)-8-azabicyclo[3.2.1]octan-3-yl)oxy)carbonyl)amino)-4-methylpentanamido)-1-hydroxy-3-((S)-2-oxopyrrolidin-3-yl)propane-1-sulfonate] | 1710 ± 160 | > 100000 | – | – | – | –
CC(C)C[C@H](NC(=O)OC1CC2CCC(C1)N2C(=O)OCc1ccccc1)C(=O)N[C@@H](C[C@H]1CCNC1=O)C(O)S(=O)(=O)O (stereo partly drawn) [Compound 3h, Sodium (2S)-2-((S)-2-(((((1R,3s,5S)-8-((benzyloxy)carbonyl)-8-azabicyclo[3.2.1]octan-3-yl)oxy)carbonyl)amino)-4-methylpentanamido)-1-hydroxy-3-((S)-2-oxopyrrolidin-3-yl)propane-1-sulfonate] | 370 ± 30 | > 100000 | – | – | – | –
CC(C)C[C@H](NC(=O)OCC12CC3CC(CC(C3)C1)C2)C(=O)N[C@@H](C[C@H]1CCNC1=O)C(O)S(=O)(=O)O (stereo partly drawn) [Compound 3k, Sodium (2S)-2-((S)-2-(((((3S,5S,7S)-adamantan-1-yl)methoxy)carbonyl)amino)-4-methylpentanamido)-1-hydroxy-3-((S)-2-oxopyrrolidin-3-yl)propane-1-sulfonate] | 150 ± 40 | > 100000 | 53 ± 3 | – | – | –
CC(C)C[C@H](NC(=O)OCCC12CC3CC(CC(C3)C1)C2)C(=O)N[C@@H](C[C@H]1CCNC1=O)C(O)S(=O)(=O)O (stereo partly drawn) [Compound 3m, Sodium (2S)-2-((S)-2-(((2-((3S,5S,7S)-adamantan-1-yl)ethoxy)carbonyl)amino)-4-methylpentanamido)-1-hydroxy-3-((S)-2-oxopyrrolidin-3-yl)propane-1-sulfonate] | 250 ± 40 | > 100000 | – | – | – | –
CC(C)C[C@H](NC(=O)OCC12CC3CC(CC(O)(C3)C1)C2)C(=O)N[C@@H](C[C@H]1CCNC1=O)C(O)S(=O)(=O)[O-].[Na+] (stereo partly drawn) [Compound 3n, Sodium (2S)-1-hydroxy-2-((S)-2-(((((1r,3R,5R,7S)-3-hydroxyadamantan-1-yl)methoxy)carbonyl)amino)-4-methylpentanamido)-3-((S)-2-oxopyrrolidin-3-yl)propane-1-sulfonate] | 1030 ± 240 | > 100000 | – | ~5 | – | –
CC(C)C[C@H](NC(=O)OC1CC2(CCN(C(=O)OC(C)(C)C)CC2)C1)C(=O)N[C@@H](C[C@H]1CCNC1=O)C(O)S(=O)(=O)O (stereo partly drawn) [Compound 7c, Sodium (2S)-2-((S)-2-((((7-(tert-butoxycarbonyl)-7-azaspiro[3.5]nonan-2-yl)oxy)carbonyl)amino)-4-methylpentanamido)-1-hydroxy-3-((R)-2-oxopyrrolidin-3-yl)propane-1-sulfonate] | – | – | – | – | 80 | > 100000
CC(C)C[C@H](NC(=O)OCC1CN(C(=O)OC(C)(C)C)C1)C(=O)N[C@H](C=O)C[C@H]1CCNC1=O [Compound 14b, Tert-butyl 3-(((((S)-4-methyl-1-oxo-1-(((S)-1-oxo-3-((R)-2-oxopyrrolidin-3-yl)propan-2-yl)amino)pentan-2-yl)carbamoyl)oxy)methyl)azetidine-1-carboxylate] | – | – | – | – | 380 | > 100000
CC(C)C[C@H](NC(=O)OCC1CN(C(=O)C2CC3CCC2C3)C1)C(=O)N[C@@H](C[C@H]1CCNC1=O)C(O)S(=O)(=O)O (stereo partly drawn) [Compound 16c, Sodium (2S)-2-((2S)-2-((((1-(bicyclo[2.2.1]heptane-2-carbonyl)azetidin-3-yl)methoxy)carbonyl)amino)-4-methylpentanamido)-1-hydroxy-3-((R)-2-oxopyrrolidin-3-yl)propane-1-sulfonate] | – | – | – | – | – | > 100000
CC(C)C[C@H](NC(=O)OCC1CN(S(C)(=O)=O)C1)C(=O)N[C@H](C=O)C[C@H]1CCNC1=O [Compound 17b, (1-(Methylsulfonyl)azetidin-3-yl)methyl ((S)-4-methyl-1-oxo-1-(((S)-1-oxo-3-((R)-2-oxopyrrolidin-3-yl)propan-2-yl)amino)pentan-2-yl)carbamate] | – | – | – | – | – | > 100000
CC(C)C[C@H](NC(=O)OCC1CN(S(C)(=O)=O)C1)C(=O)N[C@@H](C[C@H]1CCNC1=O)C(O)S(=O)(=O)O (stereo partly drawn) [Compound 17c, Sodium (2S)-1-hydroxy-2-((S)-4-methyl-2-((((1-(methylsulfonyl)azetidin-3-yl)methoxy)carbonyl)amino)pentanamido)-3-((R)-2-oxopyrrolidin-3-yl)propane-1-sulfonate] | – | – | – | – | – | > 100000
